Source: publication PMC8776092, “A Toxoplasma gondii Oxopurine Transporter Binds Nucleobases and Nucleosides Using Different Binding Modes” (International Journal of Molecular Sciences, 2022)
“And” between values parts separate entries of the source, which are not always exact repeats. Equal entries are not always repeated.

How the values were obtained:
[1] = target: T1, Tg244440 (Toxoplasma gondii, UniProt A0A125YNC9); assay: [3H]-guanine uptake and its inhibition in T. brucei TbNB-KO procyclics expressing Tg244440 (clone F5); type: cell-based; conditions: for Ki: competition with 50 nM [3H]-guanine, Cheng-Prusoff; for Ki / Inhibition of [3H]-guanine transport by pyrimidines: 30 s; for ΔG^0 (Gibbs free energy of interaction): calculated from Km or Ki, ΔG0 = −RTln(Ki); for Inhibition of [3H]-guanine transport by pyrimidines: inhibitor at 1 mM, 0.1 μM [3H]-guanine
T1 sequence (A0A125YNC9 1-462): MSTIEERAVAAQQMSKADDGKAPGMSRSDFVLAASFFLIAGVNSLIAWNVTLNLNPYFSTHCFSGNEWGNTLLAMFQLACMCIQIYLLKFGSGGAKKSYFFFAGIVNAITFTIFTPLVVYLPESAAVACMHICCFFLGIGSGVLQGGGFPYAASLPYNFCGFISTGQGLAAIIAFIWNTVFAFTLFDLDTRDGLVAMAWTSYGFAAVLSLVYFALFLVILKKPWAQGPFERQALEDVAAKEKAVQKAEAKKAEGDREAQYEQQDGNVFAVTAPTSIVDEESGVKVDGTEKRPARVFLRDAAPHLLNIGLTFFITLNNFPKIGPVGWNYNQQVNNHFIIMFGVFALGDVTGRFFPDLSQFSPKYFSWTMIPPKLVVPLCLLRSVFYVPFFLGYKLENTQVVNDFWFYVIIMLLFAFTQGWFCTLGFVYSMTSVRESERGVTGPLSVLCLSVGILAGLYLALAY
Description: (§1) Briefly, PCF cells of T. brucei in logarithmic growth were harvested by centrifugation at 1000× g for 10 min, washed twice in AB and then resuspended in fresh buffer at a final density of 10^8 cells/mL. […] Immediately after finishing the assay, all tubes were flash-frozen in liquid nitrogen and the cell pellets were cut into scintillation vials and lysed with a solution of 2% SDS for one hour under agitation. Then, 3 mL of scintillation fluid (Scintilogic U, Lablogic) was added to each vial and left agitating overnight on a rocking platform. The next morning, the vials were vigorously shaken to ensure optimal mixing and the scintillation was measured in a 300SL (Hidex) scintillation counter. All assays were carried out in triplicate. All experimental data such as Km, Ki and Vmax values are the average and SEM of at least three separate experiments, each in triplicate, unless otherwise indicated.
Background scintillation was measured in vials containing no cells or radiolabeled substrate, and counts associated with extracellular radiolabel were calculated from samples where cells were briefly incubated with the same concentration of radiolabel, but in the presence of saturating concentrations of non-radiolabeled substrate before centrifugation through oil. The average of the three control replicates was subtracted from each data point.

[2] = target: T1, Tg244440; type: cell-based; conditions: 0.1 μM [3H]-permeant, 60 s, clones B11, F5 and G10
Description: Figure 2 Uptake of radiolabelled nucleosides and nucleobases by in three clonal lines of T. brucei NB-KO procyclics, expressing Tg244440 in pHD1336. EV, empty vector control. Radiolabel concentration was 0.1 µM and uptake was measured over 60 s, in triplicate (average and SEM shown). Statistically significant differences between the control and the Tg244440-expressing cells were established using Student’s unpaired t-test. *, p < 0.05, **, p < 0.01, ***, p < 0.001.
as §1

[3] = tested on: O=c1[nH]cnc2nc[nH]c12; assay: cells, lysate or membranes; conditions: other: 0.10 µM [3H]-hypoxanthine, 30 s, Michaelis-Menten; pH 7.3
[4] = substrate: Nc1nc2nc[nH]c2c(=O)[nH]1; assay: [3H]-guanine uptake and its inhibition in T. brucei TbNB-KO procyclics expressing Tg244440 (clone F5); type: cell-based, Toxoplasma gondii; conditions: other: 0.05 µM [3H]-guanine, 30 s, Michaelis-Menten; pH 7.3

## O=[N+]([O-])c1ccc(CSc2ncnc3c2ncn3[C@@H]2O[C@H](CO)[C@@H](O)[C@H]2O)cc1 [S-(4-nitrobenzyl)-6-thioinosine (NBMPR), S-(4-nitrobenzyl)-6-thioinosine]
[1]
  Ki: 78 ± 6 µM
  ΔG^0 (Gibbs free energy of interaction): -5.59 kcal/mol
[1]; relative to Adenosine
  δ(ΔG^0) relative to Adenosine: 0.0837 kcal/mol

## O=c1[nH]c(=O)c2nc[nH]c2[nH]1 [Xanthine]
[1]
  Ki: 42.4 ± 4.2 µM
  ΔG^0 (Gibbs free energy of interaction): -5.95 kcal/mol
[1]; relative to Guanine
  δ(ΔG^0) relative to Guanine: 2.08 kcal/mol
[1]; relative to Hypoxanthine
  δ(ΔG^0) relative to Hypoxanthine: 1.74 kcal/mol

## Cc1cn([C@H]2C[C@H](O)[C@@H](CO)O2)c(=O)[nH]c1=O [thymidine]
[2]
  Uptake of radiolabelled permeant in Tg244440 clones compared to empty vector: only slightly increased

## Cc1c[nH]c(=O)[nH]c1=O [thymine]
[1]
  Inhibition of [3H]-guanine transport by pyrimidines: significant inhibition

## O=c1ccn([C@@H]2O[C@H](CO)[C@@H](O)[C@H]2O)c(=O)[nH]1 [uridine]
[1]
  Inhibition of [3H]-guanine transport by pyrimidines: significant inhibition

## Tg244440 (Toxoplasma gondii ME49)
[3]
  Km: 1 µM and 0.79 ± 0.06 µM

B1: Tg244440 (Toxoplasma gondii ME49) (protein)
chain: MSTIEERAVAAQQMSKADDGKAPGMSRSDFVLAASFFLIAGVNSLIAWNVTLNLNPYFSTHCFSGNEWGNTLLAMFQLACMCIQIYLLKFGSGGAKKSYFFFAGIVNAITFTIFTPLVVYLPESAAVACMHICCFFLGIGSGVLQGGGFPYAASLPYNFCGFISTGQGLAAIIAFIWNTVFAFTLFDLDTRDGLVAMAWTSYGFAAVLSLVYFALFLVILKKPWAQGPFERQALEDVAAKEKAVQKAEAKKAEGDREAQYEQQDGNVFAVTAPTSIVDEESGVKVDGTEKRPARVFLRDAAPHLLNIGLTFFITLNNFPKIGPVGWNYNQQVNNHFIIMFGVFALGDVTGRFFPDLSQFSPKYFSWTMIPPKLVVPLCLLRSVFYVPFFLGYKLENTQVVNDFWFYVIIMLLFAFTQGWFCTLGFVYSMTSVRESERGVTGPLSVLCLSVGILAGLYLALAY
[4]
  Km: 1 µM
